From PubChem BioAssay AID256 (DTP/NCI, 2004)
Values joined by “and” are separate entries in the source; they are usually repeats but may differ in a detail not shown here. Identical values can stand only once. Inconclusive results and toxic doses are left out.

Tested on: CD2F1 mice, L1210 leukemia ip, survival T/C
Experiment: NCI In Vivo Anticancer Drug Screen. Data for tumor model L1210 Leukemia (intraperitoneal) in CD2F1 (CDF1) mice
Conditions: higher = longer survival
Summary of the method: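 Compound-dosed mice with transplantable tumor versus matched vehicle controls; endpoint ratio T/C reported.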

[1] = endpoint: mean survival time, dose: 75.0 mg/kg/injection, schedule: Q01DX001 (ip), vehicle: saline
[2] = endpoint: mean survival time, dose: 150.0 mg/kg/injection, schedule: Q01DX001 (ip), vehicle: saline
[3] = endpoint: mean survival time, dose: 25.0 mg/kg/injection, schedule: Q01DX009 (ip), vehicle: other
[4] = endpoint: mean survival time, dose: 50.0 mg/kg/injection, schedule: Q01DX009 (ip), vehicle: other
[5] = endpoint: mean survival time, dose: 100.0 mg/kg/injection, schedule: Q01DX009 (ip), vehicle: other
[6] = endpoint: mean survival time, dose: 200.0 mg/kg/injection, schedule: Q01DX009 (ip), vehicle: other
[7] = endpoint: mean survival time, dose: 400.0 mg/kg/injection, schedule: Q01DX009 (ip), vehicle: other
[8] = endpoint: mean survival time, dose: 100.0 mg/kg/injection, schedule: Q04DX003 (ip), vehicle: saline with Tween-80
[9] = endpoint: mean survival time, dose: 25.0 mg/kg/injection, schedule: Q01DX009 (ip), vehicle: saline with Tween-80
[10] = endpoint: mean survival time, dose: 25.0 mg/kg/injection, schedule: Q04DX002 (ip), vehicle: saline with Tween-80
[11] = endpoint: mean survival time, dose: 50.0 mg/kg/injection, schedule: Q01DX009 (ip), vehicle: saline with Tween-80
[12] = endpoint: mean survival time, dose: 50.0 mg/kg/injection, schedule: Q04DX002 (ip), vehicle: saline with Tween-80
[13] = endpoint: mean survival time, dose: 100.0 mg/kg/injection, schedule: Q01DX009 (ip), vehicle: saline with Tween-80
[14] = endpoint: mean survival time, dose: 100.0 mg/kg/injection, schedule: Q04DX002 (ip), vehicle: saline with Tween-80
[15] = endpoint: mean survival time, dose: 200.0 mg/kg/injection, schedule: Q04DX002 (ip), vehicle: saline with Tween-80
[16] = endpoint: mean survival time, dose: 400.0 mg/kg/injection, schedule: Q04DX002 (ip), vehicle: saline with Tween-80

CC12CCC(C(CO)C1=O)C2(C)C (configuration not stated)
T/C [1]: 98 % of control
T/C [2]: 98 % of control
T/C (endpoint: mean survival time, dose: 300.0 mg/kg/injection, schedule: Q01DX001 (ip), vehicle: saline): 98 % of control

O=c1[nH]c(NCCc2ccccc2)c(Br)c(=O)[nH]1
T/C (endpoint: mean survival time, dose: 75.0 mg/kg/injection, schedule: Q01DX001 (ip), vehicle: saline with Tween-80): 98 % of control
T/C (endpoint: mean survival time, dose: 150.0 mg/kg/injection, schedule: Q01DX001 (ip), vehicle: saline with Tween-80): 102 % of control
T/C (endpoint: mean survival time, dose: 300.0 mg/kg/injection, schedule: Q01DX001 (ip), vehicle: saline with Tween-80): 106 % of control

CCCNC1=C(C)C(=O)C2=C(C1=O)[C@H](COC(N)=O)[C@]1(OC)[C@@H]3N[C@@H]3CN21
T/C (endpoint: mean survival time, dose: 10.2 mg/kg/injection, schedule: Q01DX001 (ip), vehicle: saline): 108 % of control
T/C (endpoint: mean survival time, dose: 15.5 mg/kg/injection, schedule: Q01DX001 (ip), vehicle: saline): 112 % of control
T/C (endpoint: mean survival time, dose: 23.2 mg/kg/injection, schedule: Q01DX001 (ip), vehicle: saline): 120 % of control
T/C (endpoint: median survival time, dose: 0.39 mg/kg/injection, schedule: Q01DX009 (ip), vehicle: suspension in saline): 93 % of control
T/C (endpoint: median survival time, dose: 0.78 mg/kg/injection, schedule: Q01DX009 (ip), vehicle: saline): 112 % of control
T/C (endpoint: median survival time, dose: 0.78 mg/kg/injection, schedule: Q01DX009 (ip), vehicle: suspension in saline): 93 % of control
T/C (endpoint: median survival time, dose: 1.56 mg/kg/injection, schedule: Q01DX009 (ip), vehicle: saline): 117 % of control
T/C (endpoint: median survival time, dose: 1.56 mg/kg/injection, schedule: Q01DX009 (ip), vehicle: suspension in saline): 102 % of control
T/C (endpoint: median survival time, dose: 3.12 mg/kg/injection, schedule: Q01DX009 (ip), vehicle: suspension in saline): 102 % of control
T/C (endpoint: median survival time, dose: 6.25 mg/kg/injection, schedule: Q01DX009 (ip), vehicle: saline): 166 % of control
T/C (endpoint: median survival time, dose: 6.25 mg/kg/injection, schedule: Q01DX009 (ip), vehicle: suspension in saline): 104 % of control
T/C (endpoint: median survival time, dose: 12.5 mg/kg/injection, schedule: Q01DX009 (ip), vehicle: saline): 100 % of control
T/C (endpoint: median survival time, dose: 12.5 mg/kg/injection, schedule: Q01DX009 (ip), vehicle: suspension in saline): 112 % of control

CCOC(=O)C1=C(C)NC(C)=C(C(=O)OCC)C1c1cccc([N+](=O)[O-])c1
T/C (endpoint: mean survival time, dose: 100.0 mg/kg/injection, schedule: Q01DX009 (ip), vehicle: Klucel (hydroxypropylcellulose) (HPC)): 105 % of control
T/C (endpoint: mean survival time, dose: 200.0 mg/kg/injection, schedule: Q01DX009 (ip), vehicle: Klucel (hydroxypropylcellulose) (HPC)): 91 % of control

CCCCCCCCCCSCC(N)C(=O)O (configuration not stated)
T/C [3]: 88 % of control
T/C [4]: 88 % of control
T/C [5]: 94 % of control
T/C [6]: 94 % of control
T/C [7]: 97 % of control

O=NN(CCCl)C(=O)Nc1ccc2c(c1)OCO2
T/C (endpoint: mean survival time, dose: 44.0 mg/kg/injection, schedule: Q01DX001 (ip), vehicle: other): 156 % of control
T/C (endpoint: mean survival time, dose: 66.0 mg/kg/injection, schedule: Q01DX001 (ip), vehicle: other): 216 % of control
T/C (endpoint: mean survival time, dose: 100.0 mg/kg/injection, schedule: Q01DX001 (ip), vehicle: other): 277 % of control
T/C (endpoint: mean survival time, dose: 150.0 mg/kg/injection, schedule: Q01DX001 (ip), vehicle: other): 171 % of control

C/C(=N\O)C1(C)CC=CCC1CO (configuration not stated)
T/C (endpoint: mean survival time, dose: 100.0 mg/kg/injection, schedule: Q01DX009 (ip), vehicle: saline sonified): 102 % of control
T/C (endpoint: mean survival time, dose: 200.0 mg/kg/injection, schedule: Q01DX009 (ip), vehicle: saline sonified): 96 % of control
T/C (endpoint: mean survival time, dose: 400.0 mg/kg/injection, schedule: Q01DX009 (ip), vehicle: saline sonified): 100 % of control

CC(C)CCCC(C)C1CCC2C3=CCC4CC(O)CCC4(C)C3CCC21C (configuration not stated)
T/C [8]: 100 % of control
T/C (endpoint: mean survival time, dose: 200.0 mg/kg/injection, schedule: Q04DX003 (ip), vehicle: saline with Tween-80): 91 % of control
T/C (endpoint: mean survival time, dose: 400.0 mg/kg/injection, schedule: Q04DX003 (ip), vehicle: saline with Tween-80): 94 % of control

O=S1CCCO1 (configuration not stated)
T/C (endpoint: mean survival time, dose: 18.8 mg/kg/injection, schedule: Q04DX003 (ip), vehicle: saline): 101 % of control

CNCCNc1ccc(NCCNC)c2c1C(=O)c1ccccc1C2=O
T/C (endpoint: mean survival time, dose: 4.0 mg/kg/injection, schedule: Q01DX009 (ip), vehicle: acid diluted with saline): 150 % of control and 157 % of control
T/C (endpoint: mean survival time, dose: 8.0 mg/kg/injection, schedule: Q01DX009 (ip), vehicle: acid diluted with saline): 187 % of control and 195 % of control
T/C (endpoint: mean survival time, dose: 16.0 mg/kg/injection, schedule: Q01DX009 (ip), vehicle: acid diluted with saline): 177 % of control

CO/N=C(/c1ccccc1)c1cc[n+](C)cc1
T/C (endpoint: mean survival time, dose: 37.5 mg/kg/injection, schedule: Q04DX003 (ip), vehicle: saline): 100 % of control
T/C [1]: 95 % of control
T/C (endpoint: mean survival time, dose: 75.0 mg/kg/injection, schedule: Q04DX003 (ip), vehicle: saline): 96 % of control
T/C [2]: 100 % of control

COc1ncc(C2OC(CO)C(O)C2O)c(OC)n1 (configuration not stated)
T/C [3]: 100 % of control
T/C [4]: 104 % of control
T/C [5]: 96 % of control
T/C [6]: 100 % of control
T/C [7]: 96 % of control

CC1(C)CC(=O)c2cc([C@@H]3OC[C@@H](O)[C@H]3O)[nH]c2C1
T/C (endpoint: median survival time, dose: 12.5 mg/kg/injection, schedule: Q01DX005 (ip), vehicle: water): 101 % of control
T/C (endpoint: median survival time, dose: 25.0 mg/kg/injection, schedule: Q01DX005 (ip), vehicle: water): 101 % of control
T/C (endpoint: median survival time, dose: 50.0 mg/kg/injection, schedule: Q01DX005 (ip), vehicle: water): 101 % of control
T/C (endpoint: median survival time, dose: 100.0 mg/kg/injection, schedule: Q01DX005 (ip), vehicle: water): 94 % of control
T/C (endpoint: median survival time, dose: 200.0 mg/kg/injection, schedule: Q01DX005 (ip), vehicle: water): 96 % of control

CCOC(=O)C(=C=C(C(=O)OCC)C(=O)OCC)C(=O)OCC
T/C (endpoint: mean survival time, dose: 25.0 mg/kg/injection, schedule: Q01DX005 (ip), vehicle: saline with Tween-80): 97 % of control
T/C [9]: 95 % of control
T/C [10]: 103 % of control
T/C (endpoint: mean survival time, dose: 50.0 mg/kg/injection, schedule: Q01DX005 (ip), vehicle: saline with Tween-80): 92 % of control and 97 % of control
T/C [11]: 98 % of control
T/C [12]: 88 % of control and 106 % of control
T/C (endpoint: mean survival time, dose: 100.0 mg/kg/injection, schedule: Q01DX005 (ip), vehicle: saline with Tween-80): 94 % of control
T/C [13]: 95 % of control
T/C [14]: 103 % of control and 106 % of control
T/C (endpoint: mean survival time, dose: 200.0 mg/kg/injection, schedule: Q01DX005 (ip), vehicle: saline with Tween-80): 86 % of control and 94 % of control
T/C (endpoint: mean survival time, dose: 200.0 mg/kg/injection, schedule: Q01DX009 (ip), vehicle: saline with Tween-80): 91 % of control
T/C [15]: 95 % of control and 98 % of control
T/C [16]: 98 % of control

O=C(CSCC(=O)c1ccccc1)c1ccccc1
T/C (endpoint: mean survival time, dose: 400.0 mg/kg/injection, schedule: Q04DX002 (ip), vehicle: Klucel (hydroxypropylcellulose) (HPC)): 89 % of control

COc1c(C)c2c(c3c1CC(O)O3)C(=O)OC2 (configuration not stated)
T/C [14]: 112 % of control
T/C [15]: 103 % of control
T/C [16]: 106 % of control

CCc1nc2c(=O)n(C3OC(CO)C(O)C3O)cnc2o1 (configuration not stated)
T/C (endpoint: mean survival time, dose: 100.0 mg/kg/injection, schedule: Q01DX005 (ip), vehicle: saline): 100 % of control
T/C (endpoint: mean survival time, dose: 200.0 mg/kg/injection, schedule: Q01DX005 (ip), vehicle: saline): 101 % of control

O.O=C(O)C(Cc1ccc(O)cc1)N=Cc1c(O)cncc1COP(=O)(O)O.[Cu] (configuration not stated)
T/C (endpoint: mean survival time, dose: 12.5 mg/kg/injection, schedule: Q01DX001 (ip), vehicle: saline with Tween-80): 95 % of control
T/C (endpoint: mean survival time, dose: 25.0 mg/kg/injection, schedule: Q01DX001 (ip), vehicle: saline with Tween-80): 103 % of control
T/C (endpoint: mean survival time, dose: 50.0 mg/kg/injection, schedule: Q01DX001 (ip), vehicle: saline with Tween-80): 98 % of control

COc1ccc(NC(=O)c2ccc(C(=O)Nc3ccc(OC)cc3)cc2)cc1
T/C (endpoint: mean survival time, dose: 100.0 mg/kg/injection, schedule: Q01DX009 (ip), vehicle: saline): 96 % of control
T/C (endpoint: mean survival time, dose: 200.0 mg/kg/injection, schedule: Q01DX009 (ip), vehicle: saline): 90 % of control
T/C (endpoint: mean survival time, dose: 400.0 mg/kg/injection, schedule: Q01DX009 (ip), vehicle: saline): 98 % of control

NC(=O)c1ccc(OC(F)(F)C(F)Cl)cc1OC(F)(F)C(F)Cl (configuration not stated)
T/C [10]: 96 % of control
T/C [12]: 101 % of control
T/C [14]: 101 % of control

c1ccc(CCNCc2ccccc2)cc1
T/C [9]: 94 % of control
T/C [11]: 98 % of control
T/C (endpoint: mean survival time, dose: 50.0 mg/kg/injection, schedule: Q04DX003 (ip), vehicle: saline with Tween-80): 104 % of control
T/C [13]: 88 % of control
T/C [8]: 97 % of control
